Patent US20240238274A1, “INHIBITORS OF UBIQUITIN SPECIFIC PEPTIDASE 22 (USP22) AND USES THEREOF FOR TREATING DISEASE AND DISORDERS” (Northwestern University, priority 2021, published 2024)

Experiments:
Foxp3 in iTreg cells = assay: In vitro dose response and mechanism study in WT, Usp22-null and Usp21-null Treg cells; assay type: cell-based, murine
Protocol: FIG. 15: Usp22i-S02 halts Usp22-mediated Foxp3 deubiquitination. A, Graphical representation of Foxp3 MFI change in WT versus 22KO iTreg cells treated with various doses of Usp22i-S02 (n=3). B, Representative histogram of Foxp3 MFI level in iTreg cells as Usp22 inhibitor concentration increases from 0-20 μg/mL. C, Cell survival of iTreg cells treated with various doses of Usp22i-S02 (n=3). D, FOXP3 and USP22 protein level in WT and 22KO mice treated with 10 μg/mL Usp22i-S02. E-F, Graphical and representative data of Foxp3 MFI of human Treg cells treated with various doses of Usp22i-S02 (n=3). G, Graphical representation of Foxp3 MFI in WT, Usp21-null, and Usp22-null Treg cells treated with Usp22i-S02 at 10 μg/mL (n=3). H, FOXP3 and USP22 protein degradation of cycloheximide (10 μg/mL) treated iTreg cells with or without the addition of 10 μg/mL of Usp22i-S02. I-J, Endogenous DUB assay IP in iTreg cells of USP22 with FOXP3 under increasing concentrations of Usp22i-S02. K, Foxp3 mRNA level in iTreg cells as Usp22 inhibitor concentration increases from 0-20 μg/mL (n=3). L, FOXP3 and USP22 level in WT iTreg cells with or without 20 μg/mL Usp22 inhibitor treated with 20 μM MG132. M, Graphical representation of the percentage of decrease of Foxp3 MFI in either WT or Usp22-null nTreg cells placed in low glucose conditions with or without the addition of 10 μg/mL of Usp22i-S02 (n=7-8). N, Graphical representation of the percentage of decrease of Foxp3 MFI in WT nTreg cells placed in hypoxic or low amino acid conditions with or without the addition of 10 μg/mL of Usp22i-S02 (n=3-5). G, Two-tailed unpaired t-test comparing within groups was performed to determine statistical significance. K, One-way ANOVA with Dunnet's multiple comparisons between rows relative to control was performed to determine statistical significance. M-N, Two-way ANOVA with Sidak's multiple comparisons between rows was performed to determine statistical significance. All data are presented as mean±stdev. NS, not significant. *P<0.05, **P<0.01, ***P<0.001, ****P<0.0001.
After initial screening, we ran an in vitro dose response study on compound S02, now dubbed Usp22i-S02, in both WT and Usp22-null iTreg cells (FIG. 15A-C).
All nTreg and iTreg cells were plated as described above DMOG (Sigma Catalog #D3695) was administered to the cells in relevant experiments at 1 mM for 24 hours. Oligomycin (Sigma Catalog #75351) was administered at 1 μM to the media of the cells in relevant experiments for 24 hours. Torin 1 (Millipore Catalog #475991) was administered to the relevant cells at 250 nM for 24 hours. FOXP3 protein level was assessed via flow cytometry following […] of treatment of inhibitors described above. In vitro administration of Usp22i-S02 was at 10 ug/mL.

USP22 = target: T1, USP22 (Mus musculus, UniProt Q5DU02); assay: Biological screening of the 25 chemicals, FOXP3 MFI reduction as readout; assay type: cell-based; settings: biological validation of the 25 chemicals
T1 construct: endogenous in cells; probably murine iTreg
T1 sequence (Q5DU02 1-525): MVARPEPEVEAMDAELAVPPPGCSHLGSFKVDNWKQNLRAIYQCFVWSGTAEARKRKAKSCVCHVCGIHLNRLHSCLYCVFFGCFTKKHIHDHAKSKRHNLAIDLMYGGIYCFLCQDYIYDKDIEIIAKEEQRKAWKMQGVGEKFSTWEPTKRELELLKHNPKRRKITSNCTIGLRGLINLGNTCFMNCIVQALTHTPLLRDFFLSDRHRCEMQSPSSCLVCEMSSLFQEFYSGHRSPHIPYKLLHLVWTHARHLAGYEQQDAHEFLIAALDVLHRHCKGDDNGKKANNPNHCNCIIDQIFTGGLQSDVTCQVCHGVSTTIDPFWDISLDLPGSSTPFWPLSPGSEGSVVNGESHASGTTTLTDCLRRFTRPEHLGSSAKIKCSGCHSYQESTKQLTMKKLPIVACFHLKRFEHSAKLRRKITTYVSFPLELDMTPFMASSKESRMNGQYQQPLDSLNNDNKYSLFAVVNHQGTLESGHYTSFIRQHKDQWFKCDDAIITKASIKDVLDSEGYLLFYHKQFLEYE
T1 sequence (A2AWT3 1-347 partner): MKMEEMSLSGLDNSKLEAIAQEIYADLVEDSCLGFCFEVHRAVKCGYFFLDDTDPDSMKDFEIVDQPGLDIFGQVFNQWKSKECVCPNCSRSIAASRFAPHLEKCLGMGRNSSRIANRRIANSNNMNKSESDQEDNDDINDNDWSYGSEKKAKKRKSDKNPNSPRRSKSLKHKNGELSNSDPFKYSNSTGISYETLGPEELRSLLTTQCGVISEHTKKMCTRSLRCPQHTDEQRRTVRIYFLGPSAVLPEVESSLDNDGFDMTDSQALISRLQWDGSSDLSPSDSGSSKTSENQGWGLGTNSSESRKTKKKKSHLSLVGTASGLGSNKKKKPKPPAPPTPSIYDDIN
T1 sequence (Q9JIX0 1-101 partner): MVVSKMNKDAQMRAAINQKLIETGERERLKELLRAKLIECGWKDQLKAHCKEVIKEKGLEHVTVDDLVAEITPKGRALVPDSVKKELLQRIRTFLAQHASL
From the text: We then used both Lipinski's Rule and Veber's Rule to filter through the Specs database and found a total of 240K compounds binding to the catalytic pocket of our Usp22 model. We then filtered the top 100 compounds ranked by docking affinity by MD and MM/PBSA methods and were left with 25 compounds (Table 1). This limited number of compounds allowed us for further biological screening. As USP22 suppression leads to dramatic reduction in FOXP3 expression levels, we utilized FOXP3 MFI reduction as a readout for the biological validation of USP22 inhibitory efficacy by each of the 25 chemicals. […] The compound S02, structure shown in FIG. 6A, bound stably in the USP22 catalytic domain pocket shown by the RMSD trajectory (FIG. 14E) with strong binding energies to our USP22-md model (FIG. 14F). […] Therefore, future generations of Usp22 inhibitors should take into considerations not only the hydrophobic residues, but also the interaction between the inhibitor and the charged and polar residues on the surface of the binding pocket.

## N#Cc1c2c(c(Nc3ccccc3)n3c1nc1ccccc13)CCCC2 [Chemical S02, 11-anilino-7,8,9,10-tetrahydro-benzimidazo [1,2-b] isoquinoline-6-carbonitrile]
Foxp3 in iTreg cells; 10 μg/mL
  viability of iTreg cells: little effect on viability
Foxp3 in iTreg cells; Usp21-null iTreg cells, 10 μg/mL
  effect on Foxp3 in iTreg cells lacking Usp21: full effect
Foxp3 in iTreg cells; WT iTreg cells, 10 μg/mL
  Foxp3 MFI and protein level: decreases in Foxp3 MFI and protein level comparable to Usp22-null iTreg cells
Foxp3 in iTreg cells; WT nTreg cells, low glucose, 10 μg/mL
  Foxp3 stability under glucose starvation: significantly diminished Foxp3 stability
Foxp3 in iTreg cells; cycloheximide (CHX) treated iTreg cells
  FOXP3 degradation: enhanced FOXP3 degradation
Foxp3 in iTreg cells; iTreg cells, Foxp3 mRNA, 0-20 μg/mL
  Foxp3 transcription: decreased Foxp3 transcription
Foxp3 in iTreg cells; iTreg cells, endogenous DUB assay IP
  FOXP3 ubiquitination: increased FOXP3 ubiquitination
Foxp3 in iTreg cells; murine Treg cells lacking Usp22, in vivo and in vitro
  FOXP3 levels in Treg cells lacking Usp22: minimal effect on FOXP3 levels
USP22
  efficacy in downregulating FOXP3 expression: strong efficacy in downregulating FOXP3 expression
